Assay: in vitro
Conditions: human, hela cells, % viability

Compound | viability at 28.5 h, 10 µM [%]
COc1ccccc1CN(CC(C)(C)CN)C(=O)Nc1ccc(C)c([N+](=O)[O-])c1 [CBK026816C] | 98.8
O=C(c1ccccc1)c1ccc2n1CCC2C(=O)N1CCN(c2ccccc2)CC1 (centres unmarked) [CBK300536] | 115
COc1cc(CNC(=O)N2CCCC(CO)C2)cc(OC)c1OC (centres unmarked) [CBK156041] | 91.5
COc1ccc(C(NC(=O)C2CCN(CCOc3ccc4ccccc4c3)CC2)c2ccccc2C)cn1 (centres unmarked) [CBK148792] | 73.1
O=C(Nc1ccccc1-c1nc2ccccc2[nH]1)c1ccc(S(=O)(=O)N2CCCC2)cc1 [CBK263252] | 88.5
Cc1csc(C(Cc2ccsc2)NC(=O)c2ccnn2C)n1 (centres unmarked) [CBK285107] | 104
CS(=O)(=O)N1CCc2cc(-c3cc4ccccn4c3)ccc21 [CBK285256] | 107
O=c1[nH]c2ncc(-c3ccsc3)nc2n1Cc1ccccc1 [CBK064227] | 96.7
CN(C(=O)C12CCOCC1CN(c1nccnc1C#N)C2)C1CCCC1 (centres unmarked) [CBK304244] | 93.6
O=C1CCOC[C@]2(CN(Cc3ccccc3)C[C@H]2c2ccccc2)N1 [CBK283367] | 92.6
O=[N+]([O-])c1cccc(Cn2c(CO)nc3ccccc32)c1 [CBK297515] | 95.4
CC1(C)CC(=O)C(C(=S)Nc2ccccc2)=C(O)C1 [CBK288395] | 95.3
O=C1c2cccc3cccc(c23)C(=O)N1CCCSc1nnc[nH]1 [CBK268894] | 66.4
COc1ccc(Cl)cc1N(CC(=O)Nc1ccccc1C(=O)O)S(C)(=O)=O [CBK264137] | 96.9
C=CCN1C(=O)/C(=C2/Sc3ccc(OC)cc3N2C)S/C1=N\c1cc(C#N)ccc1NCC [CBK262431] | 108
COc1ccc(Cl)cc1NC(=O)CC(C)(C)CC(=O)O [CBK001236] | 90.4
O=C(Nc1ccc2c(c1)OCCO2)N1CCN(c2ccccc2)CC1 [CBK155187] | 94.7
O=C(NCC1CCCCC1)C1(Cc2ccc(-c3ccncc3)cc2)CCOCC1 [CBK285564] | 121
CC(=O)N1CC[C@H](c2nc3ccc(C#N)cc3[nH]2)C1 [CBK289378] | 108
CCOC(=O)C1CCN(Cc2nc(-c3ccc(OC)c(OC)c3)no2)CC1 [CBK268852] | 92.4
OC(CNCCc1cccnc1)COc1cccc2c1CCCC2 (centres unmarked) [CBK002237] | 106
N[C@@H]1CCCN(Cc2ccncc2)[C@H]1c1ccccc1F [CBK283459] | 88.4

Compound | viability at 28.5 h, 10 µM [%]
COC(=O)c1sccc1S(=O)(=O)n1ccc2ccc(Br)cc21 [CBK003528] | 92.6
O=C(Cc1cc(C(=O)O)c2ccccc2n1)Nc1ccccc1 [CBK268227] | 96.3
Cc1cc(C)c(S(=O)(=O)N(CC(=O)O)C2CCCCC2)c(C)c1 [CBK266663] | 92.6
COc1cc(NC(=O)Cc2cccc3ccccc23)c(C(=O)O)cc1OC [CBK268206] | 99.9
O=C(CN1CCOCC1)Nc1ccc(Cl)cc1C(=O)c1ccccc1 [CBK086450] | 95.9
COCCn1c(SC2CCN(C)C2=O)nc2ccccc21 (centres unmarked) [CBK305131] | 97.9
O=C(CCCc1ccccc1)Nc1c(F)cc(F)cc1OC1CCNCC1 [CBK050222T] | 96.1
O=C(NCC(CO)Cc1ccsc1)N1CCN(c2ccncc2)CC1 (centres unmarked) [CBK306929] | 96.7
CCCc1cc(O)n(-c2nc3ccccc3[nH]2)n1 [CBK270269] | 82.7
CC(C)(C)CC(=O)N1C[C@@H]2C[C@H](C1)c1ccc(NC(=O)Nc3ccccc3)c(=O)n1C2 [CBK289176] | 85.8
COc1ccc(N2CCN(C(=S)c3ccc(OCC(N)=O)cc3)CC2)cc1 [CBK269190] | 100
Cc1cc(=O)oc2cc(OC(=O)C(Cc3ccccc3)N3C(=O)c4ccccc4C3=O)ccc12 (centres unmarked) [CBK033943] | 91.1
COc1cc2c(cc1-c1cn(CCc3n[nH]c(=O)[nH]3)nn1)CCC2 [CBK307112] | 98.3
Cc1nc2cc(C(=O)NCC(C)(C)N3CCCCC3)ccc2n1C [CBK281862] | 86.4
CSCCCNC(=O)c1ccc2[nH]ccc2c1 [CBK149056] | 100
O=C(O)c1cccc(N2C(=O)CC(n3cnc4ccccc43)C2=O)c1 (centres unmarked) [CBK291145] | 89.8
COc1ccc2[nH]c3c(=O)n(C)cnc3c2c1 [CBK025870] | 85.8
CC1CN(C(=O)OC(C)(C)C)CCN1 (centres unmarked) [CBK000069C] | 100
Cc1nc(N/N=C/c2ccc3c(c2)OCO3)sc1C [CBK263098] | 106
Cc1ccccc1Cn1c(CN2CCN(c3ccccc3)CC2)nc2c1c(=O)n(C)c(=O)n2C [CBK269488] | 94.6
Cc1csc(C(Cc2ccsc2)NC(=O)Cn2cccn2)n1 (centres unmarked) [CBK282831] | 89.7
Cc1nc(CNCc2c(C)nn(C)c2N(C)C)cs1 [CBK304808] | 95.3

Compound | viability at 28.5 h, 10 µM [%]
CC1(C)[N+]([O-])=CC(c2ccc(-c3ccccc3)cc2)=[N+]([O-])C1(C)C [CBK267825] | 98.7
CC(C)[C@H](CO)Nc1nc(-c2ccc(CCC(=O)O)cc2)cn2ccnc12 [CBK037522] | 92.7
O=C1CN(c2cccc(C(F)(F)F)c2)C(=O)N1c1ccc(Cl)cc1 [CBK122769] | 108
COc1cc(OC)cc(C(=O)Nc2cc(C)c3c(=O)oc4ccccc4c3n2)c1 [CBK291221] | 95.2
CCCCNC(=S)NC1CC[C@@]2(Cc3ccc(OC)c(OC)c3)CCN(C)[C@H]2C1 (some centres unmarked) [CBK023805] | 81.5
O=C(O)c1ccccc1-c1ccccc1C(=O)NCCc1ccccc1 [CBK263394] | 113
CCNC(=O)N1CC2(CCN(Cc3cc(OC)c(OC)c(OC)c3)CC2)c2ccccc21 [CBK126689] | 96.5
Cc1cccc(OCC(=O)Nc2ncn(Cc3cccnc3)n2)c1 [CBK304919] | 95.9
COc1ccc2c(c1)c(CN1CCCN(S(=O)(=O)c3ccc(-c4ccccc4)cc3)CC1)cn2C [CBK063125] | 104
O=C(CSc1nnc(-c2ccncc2)o1)c1ccccc1 [CBK070562] | 87.5
CN(CC(=O)Nc1ccn(Cc2cccnc2)n1)c1ccc(C#N)cn1 [CBK306105] | 87.3
Cc1cc2nc(SCc3nc4ccccc4[nH]3)[nH]c2cc1C [CBK264233] | 97.4
CC(=O)N/N=C(\C)c1ccc(-n2cnnn2)cc1 [CBK261252] | 95.9
Cc1ccc(OCCn2c(=N)n(CCN3CCOCC3)c3ccccc32)cc1 [CBK269085B] | 97.9
O=C(Nc1cccc(Cl)c1Cl)c1cccs1 [CBK057672] | 104
OC1CCCn2c1nc1cc(Cl)ccc12 (centres unmarked) [CBK113625] | 72.4
Cc1cc2nccc(C3CCCN(C(=O)OC(C)(C)C)C3)n2n1 (centres unmarked) [CBK284037] | 90.8
CCN(CC)CC1CCCCC1=O (centres unmarked) [CBK023965G] | 93.9
Cc1ccc(C2(O)CCN(Cc3c(C)nc4cc(C)ccn34)CC2)cc1 [CBK282733] | 80.5
CCNC(=O)N1CC2(CCN(CC(N)=O)CC2)c2ccccc21 [CBK126701] | 95.3
O=C(CN(Cc1ccccc1)S(=O)(=O)c1cc(Cl)ccc1Cl)Nc1cccc(F)c1 [CBK264664] | 89.3
COc1ccc(C(=O)N2CCC3(CCCN(C(=O)Cc4ccc(Cl)c(Cl)c4)C3)C2)cc1OC (centres unmarked) [CBK131654] | 98.1

Compound | viability at 28.5 h, 10 µM [%]
Cn1cccc1CNCCN1CCOCC1 [CBK278187C] | 89.2
Cc1ccc(Br)cc1S(=O)(=O)N1CCN(C(c2ccccc2)c2ccccc2)CC1 [CBK263433] | 95.3
COc1ccc(CN[C@H]2[C@H](O)[C@@H](N3CCCC3)[C@@H]3OC[C@H]2O3)cc1 [CBK288827] | 88.6
COc1ccc(-n2cnnn2)cc1 [CBK001946] | 99
Cc1noc(C)c1C(=O)N[C@H]1CO[C@H]2[C@@H]1OC[C@H]2OCc1ccccc1 [CBK289458] | 96.7
Cc1nnc(SCC(=O)c2ccccc2)[nH]1 [CBK026287] | 99.5
NC(=O)CN1C(=O)CO[C@H]2CN(Cc3ccccc3F)C[C@H]21 [CBK289693] | 114
Cc1ccc(OCc2ccccc2)c(Br)c1 [CBK002833] | 105
CC1=NN(c2ccc(S(=O)(=O)O)cc2)C(=O)/C1=C/C=C/c1c(C)nn(-c2ccc(S(=O)(=O)O)cc2)c1O [CBK278317K] | 94.6
Cc1ccccc1-n1ncc2c(=O)n(CC(=O)Nc3ccccc3)cnc21 [CBK287689] | 98.4
CN(C)CC(C)(C)CNC=C1C(=O)CC(C)(C)CC1=O [CBK262046] | 99.9
Cc1cc(C)n(S(=O)(=O)c2cc(C(=O)O)c(Cl)cc2Cl)n1 [CBK113170] | 86.3
COc1ccc(-c2oc3ccccc3c(=O)c2OCC(=O)O)cc1 [CBK269232] | 98.7
CN(C)c1cccc(-c2cc(NC3CCCCC3)ncn2)c1 [CBK090900] | 109
CS(=O)(=O)Nc1cccc(C2=NN(C(=O)CCC(=O)O)C(c3cccc(F)c3)C2)c1 (centres unmarked) [CBK268804] | 85
CCc1ccccc1NC(=O)CN1CCCCC1C(=O)O (centres unmarked) [CBK287179] | 92.4
CS(=O)(=O)N1CCCC(C(=O)Nc2cccc3cccnc23)C1 (centres unmarked) [CBK299783] | 90.8
CN(C(=O)CN1C2CCC1CC(O)(c1ccco1)C2)C1CCCCC1 (centres unmarked) [CBK284108] | 102
Cc1noc(C2(O)CCN(Cc3cccc(Cl)c3F)C2)n1 (centres unmarked) [CBK304748] | 99.3
COc1ccc(S(=O)(=O)NCCNC(=O)c2ccc(-c3cccc(Cl)c3Cl)nc2NCc2cccnc2)cc1 [CBK076436] | 116
N/C(=N\OC(=O)COc1cccc2ccccc12)c1ccc(Cl)cc1 [CBK263004] | 88.4
CCOC(=O)Cn1ncc2c3sc(C)cc3n(C)c2c1=O [CBK282388] | 96.2

Same assay, conditions: human, hela cells, % viability, bulk resorufin, single well

Compound | viability at 28.5 h, 10 µM [%]
CCc1ccc(C(=O)Nc2cccc(-c3ccc4c(c3)COC3(CCNCC3)O4)c2)cc1 [CBK093680] | 67.5
